For 21 molecules, IC95 and IC50 results are on record in US20100093811A1 (priority 2007, published 2010).

For assay [1], the system named is acute HIV infection of T-lymphoid cells. The experiment in a line: Assay for inhibition of HIV replication (spread assay). The note with it: Human immunodeficiency virus 1, T-lymphoid; read-out: Spread - IC95. Format: cell-based, HIV-1. As to the method: • Assay for Inhibition of HIV Replication
Assays for the inhibition of acute HIV infection of T-lymphoid cells were conducted in accordance with Vacca, J. P. et al., Proc. Natl. Acad. Sci. USA 1994, 91: 4096.

The target in another assay is wild-type HIV-1 protease (Human immunodeficiency virus type 1 group M subtype B, UniProt P04585). Briefly: Assay for inhibition of microbial expressed HIV protease. It is filed as biochemical. The settings on record: wild-type HIV-1 protease expressed in E. coli, peptide substrate, pH 5.5; read-out: Enzyme Inhibition - IC50. Summed up:
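Inhibition taken from HPLC (C18) product peak areas after phosphoric acid quench. Reaction: 440 micromolar Val-Ser-Gln-Asn-(betanapthyl)Ala-Pro-Ile-Val peptide, 5 pM E. coli-made protease, 1 h at 30° C, following 30 min room-temperature inhibitor preincubation in pH 5.5 acetate/NaCl/BSA buffer.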

`COC(=O)N[C@@H](Cc1ccccc1Cl)C(=O)N[C@H](CCC[C@@H](CO)N(CC(C)C)S(=O)(=O)c1ccc(CO)cc1)C1CC1` [Example I1, 2-chloro-N-{(1R,5S)-1-cyclopropyl-6-hydroxy-5-[{[4-(hydroxymethyl)phenyl]sulfonyl}-(isobutyl)amino]hexyl}-Nα-(methoxycarbonyl)-L-phenylalaninamide]: in assay [1], the IC95 came out at 155 nM. In addition, the half-maximal inhibitory concentration (IC50) on wild-type HIV-1 protease was determined as 0.634 nM.

As for `COC(=O)N[C@@H](Cc1ccccc1Cl)C(=O)N[C@H](CCC[C@@H](CO)N(C(C)C)S(=O)(=O)c1ccc(CO)cc1)C1CC1` [Example I2, 2-chloro-N-{(1R,5S)-1-cyclopropyl-6-hydroxy-5-[{[4-(hydroxymethyl)phenyl]sulfonyl}(isopropyl)amino]hexyl}-Nα-(methoxycarbonyl)-L-phenylalaninamide], the IC95 in assay [1] is 422 nM. Further, on wild-type HIV-1 protease, the IC50 is 2.25 nM.

On to `COC(=O)N[C@H](C(=O)N[C@H](CCC[C@@H](CO)N(C(C)C)S(=O)(=O)c1ccc(CO)cc1)C1CC1)C(c1ccccc1)c1ccccc1` [Example I3, N-{(1R,5S)-1-cyclopropyl-6-hydroxy-5-[{[4-(hydroxymethyl)phenyl]sulfonyl}(isopropyl)amino]hexyl}-Nα-(methoxycarbonyl)-β-phenyl-L-phenylalaninamide], for which the IC95 in assay [1] amounted to 50 nM. Further, on wild-type HIV-1 protease, the IC50 is 0.134 nM.

Turning to `CCCN([C@H](CO)CCC[C@@H](NC(=O)[C@@H](NC(=O)OC)C(c1ccccc1)c1ccccc1)C1CC1)S(=O)(=O)c1ccc(CO)cc1` [Example I4, N-{(1R,5S)-1-cyclopropyl-6-hydroxy-5-[{[4-(hydroxymethyl)phenyl]sulfonyl}(propyl)amino]hexyl}-Nα-(methoxycarbonyl)-β-phenyl-L-phenylalaninamide], the IC95 in assay [1] was 29 nM. Moreover, at wild-type HIV-1 protease, the IC50 was 0.058 nM.

With `CCN([C@H](CO)CCC[C@@H](NC(=O)[C@@H](NC(=O)OC)C(c1ccccc1)c1ccccc1)C1CC1)S(=O)(=O)c1ccc(CO)cc1` [Example I5, N-[(1R,5S)-1-cyclopropyl-5-(ethyl{[4-(hydroxymethyl)phenyl]sulfonyl}amino)-6-hydroxyhexyl]-Nα-(methoxycarbonyl)-β-phenyl-L-phenylalaninamide], the IC95 in assay [1] came to 85 nM. At wild-type HIV-1 protease, the half-maximal inhibitory concentration (IC50) came to 0.011 nM.

`COC(=O)N[C@H](C(=O)N[C@H](CCC[C@@H](CO)N(C)S(=O)(=O)c1ccc(CO)cc1)C1CC1)C(c1ccccc1)c1ccccc1` [Example I6, N-{(1R,5S)-1-cyclopropyl-6-hydroxy-5-[{[4-(hydroxymethyl)phenyl]sulfonyl}(methyl)amino]hexyl}-Nα-(methoxycarbonyl)-β-phenyl-L-phenylalaninamide]: the concentration for an effect of 95% (IC95) in assay [1] is 187 nM. In addition, at wild-type HIV-1 protease, the IC50 came to 1.03 nM.

As for `CCCN([C@H](CO)CCC[C@@H](NC(=O)[C@@H](NC(=O)OC)C(c1ccccc1)c1ccccc1)C1CC1)S(=O)(=O)c1ccc(N)cc1` [Example I7, N-{(1R,5S)-5-[[(4-aminophenyl)sulfonyl](propyl)amino]-1-cyclopropyl-6-hydroxyhexyl}-Nα-(methoxycarbonyl)-β-phenyl-L-phenylalaninamide], the IC95 in assay [1] was determined as 43 nM. For the same molecule, at wild-type HIV-1 protease, the 50% inhibitory concentration (IC50) worked out at 0.206 nM.

On to `COC(=O)N[C@H](C(=O)N[C@H](CCC[C@@H](CO)N(C(C)C)S(=O)(=O)c1ccc(N)cc1)C1CC1)C(c1ccccc1)c1ccccc1` [Example I8, N-{(1R,5S)-5-[[(4-aminophenyl)sulfonyl](isopropyl)amino]-1-cyclopropyl-6-hydroxyhexyl}-Nα-(methoxycarbonyl)-β-phenyl-L-phenylalaninamide], for which, in assay [1], the 95% effect concentration (IC95) turned out to be 43 nM. For the same molecule, the IC50 at wild-type HIV-1 protease came to 0.346 nM.

In the case of `COC(=O)N[C@H](C(=O)N[C@H](CCC[C@@H](CO)N(C)S(=O)(=O)c1ccc(N)cc1)C1CC1)C(c1ccccc1)c1ccccc1` [Example I9, N-{(1R,5S)-5-[[(4-aminophenyl)sulfonyl](methyl)amino]-1-cyclopropyl-6-hydroxyhexyl}-Nα-(methoxycarbonyl)-β-phenyl-L-phenylalaninamide], in assay [1], the IC95 is 323 nM. For the same molecule, on wild-type HIV-1 protease, the half-maximal inhibitory concentration (IC50) turned out to be 3.2 nM.

For `CCN([C@H](CO)CCC[C@@H](NC(=O)[C@@H](NC(=O)OC)C(c1ccccc1)c1ccccc1)C1CC1)S(=O)(=O)c1ccc(N)cc1` [Example I10, N-{(1R,5S)-5-[[(4-aminophenyl)sulfonyl](ethyl)amino]-1-cyclopropyl-6-hydroxyhexyl}-Nα-(methoxycarbonyl)-β-phenyl-L-phenylalaninamide], the IC95 in assay [1] turned out to be 105 nM. The IC50 on wild-type HIV-1 protease came to 0.733 nM.

As to `CC[C@@H](CCC[C@@H](CO)N(CCC(C)C)S(=O)(=O)c1ccc(CO)cc1)NC(=O)[C@@H](NC(=O)OC)C(c1ccccc1)c1ccccc1` [Example J1, N-{(1S,5S)-1-ethyl-6-hydroxy-5-[{[4-(hydroxymethyl)phenyl]sulfonyl}(3-methylbutyl)amino]hexyl}-Nα-(methoxycarbonyl)-β-phenyl-L-phenylalaninamide], the IC95 in assay [1] was 9 nM. Also, the concentration for half-maximal inhibition (IC50) at wild-type HIV-1 protease was 0.015 nM.

Turning to `COC(=O)N[C@H](C(=O)N[C@H](CCC[C@@H](CO)N(CCC(C)C)S(=O)(=O)c1ccc(CO)cc1)C(F)(F)F)C(c1ccccc1)c1ccccc1` [Example J2, N-[(1R,55S)-6-hydroxy-5-[{[4-(hydroxymethyl)phenyl]sulfonyl}(3-methylbutyl)amino]-1-(trifluoromethyl)hexyl]-Nα-(methoxycarbonyl)-β-phenyl-L-phenylalaninamide], in assay [1], the concentration for an effect of 95% (IC95) was 8 nM. For the same molecule, the IC50 at wild-type HIV-1 protease worked out at 0.012 nM.

With `COC(=O)N[C@H](C(=O)N[C@H](CCC[C@@H](CO)N(CCC(C)C)S(=O)(=O)c1ccc([C@H](C)O)cc1)C1CC1)C(c1ccc(F)cc1)c1ccc(F)cc1` [Example J3, N-{(1R,5S)-1-cyclopropyl-6-hydroxy-5-[({4-[(1S)-1-hydroxyethyl]phenyl}sulfonyl)(3-methylbutyl)amino]hexyl}-4-fluoro-β-(4-fluorophenyl)-Nα-(methoxycarbonyl)-L-phenylalaninamide], in assay [1], the 95% effect concentration (IC95) was 25 nM. The IC50 at wild-type HIV-1 protease is 0.011 nM.

As to `COC(=O)N[C@H](C(=O)N[C@@H](C)CCC[C@@H](CO)N(CCC(C)C)S(=O)(=O)c1ccc(CO)cc1)C(c1ccccc1)c1ccccc1` [Example J4, N-{(1S,5S)-6-hydroxy-5-[{[4-(hydroxymethyl)phenyl]sulfonyl}(3-methylbutyl)amino]-1-methylhexyl}-Nα-(methoxycarbonyl)-β-phenyl-L-phenylalaninamide], in assay [1], the IC95 was determined as 6 nM. For the same molecule, at wild-type HIV-1 protease, the half-inhibitory concentration (IC50) was 0.007 nM.

`COC(=O)N[C@H](C(=O)N[C@H](C)CCC[C@@H](CO)N(CCC(C)C)S(=O)(=O)c1ccc(CO)cc1)C(c1ccccc1)c1ccccc1` [Example J5, N-{(1R,5S)-6-hydroxy-5-[{[4-(hydroxymethyl)phenyl]sulfonyl}(3-methylbutyl)amino]-1-methylhexyl}-Nα-(methoxycarbonyl)-β-phenyl-L-phenylalaninamide]: in assay [1], the IC95 is 192 nM. In addition, the IC50 at wild-type HIV-1 protease was 0.291 nM.

Consider `COC(=O)N[C@H](C(=O)N[C@H](CCC[C@@H](CO)N(CCC(C)C)S(=O)(=O)c1ccc(CO)cc1)C(C)(C)C)C(c1ccccc1)c1ccccc1` [Example J6, N-{(1R,5S)-1-tert-butyl-6-hydroxy-5-[{[4-(hydroxymethyl)phenyl]sulfonyl}(3-methylbutyl)amino]hexyl}-Nα-(methoxycarbonyl)-β-pbenyl-L-phenylalaninamide], for which, in assay [1], the 95% effect concentration (IC95) amounted to 327 nM. Further, the half-maximal inhibitory concentration (IC50) at wild-type HIV-1 protease worked out at 0.976 nM.

Regarding `COC(=O)N[C@H](C(=O)N[C@@H](CCC[C@@H](CO)N(CCC(C)C)S(=O)(=O)c1ccc(CO)cc1)C(F)(F)F)C(c1ccccc1)c1ccccc1` [Example J7, N-[(1S,5S)-6-hydroxy-5-[{[4-(hydroxymethyl)phenyl]sulfonyl}(3-methylbutyl)amino]-1-(trifluoromethyl)hexyl]-Nα-(methoxycarbonyl)-β-phenyl-L-phenylalaninamide], the IC95 in assay [1] came out at 359 nM. Besides, the IC50 on wild-type HIV-1 protease amounted to 0.623 nM.

For `COC(=O)N[C@H](C(=O)N[C@H](CCC[C@@H](CO)N(CCC(C)C)S(=O)(=O)c1ccc(CO)cc1)C1CC1)C(c1ccccc1)c1ccccc1` [Example J8, N-{(1R,5S)-1-cyclopropyl-6-hydroxy-5-[{[4-(hydroxymethyl)phenyl]sulfonyl}(3-methylbutyl)amino]hexyl}-Nα-(methoxycarbonyl)-β-phenyl-L-phenylalaninamide], in assay [1], the IC95 is 10 nM. Besides, the IC50 on wild-type HIV-1 protease worked out at 0.015 nM.

With `COC(=O)N[C@H](C(=O)N[C@H](CCC[C@@H](CO)N(CCC(C)C)S(=O)(=O)c1ccc(CO)cc1)C(C)C)C(c1ccccc1)c1ccccc1` [Example J9, N-{(1R,5S)-6-hydroxy-5-[{[4-(hydroxymethyl)phenyl]sulfonyl}(3-methylbutyl)amino]-1-isopropylhexyl}-Nα-(methoxycarbonyl)-β-phenyl-L-phenylalaninamide], the IC95 in assay [1] stood at 23 nM. The IC50 on wild-type HIV-1 protease is 0.069 nM.

As for `C=C[C@@H](CCC[C@@H](CO)N(CCC(C)C)S(=O)(=O)c1ccc(CO)cc1)NC(=O)[C@@H](NC(=O)OC)C(c1ccccc1)c1ccccc1` [Example J10, N-{(1R,5S)-6-hydroxy-5-[{[4-(hydroxymethyl)phenyl]sulfonyl}(3-methylbutyl)amino]-1-vinylhexyl}-Nα-(methoxycarbonyl)-β-phenyl-L-phenylalaninamide], the concentration for an effect of 95% (IC95) in assay [1] came out at 4 nM. Moreover, at wild-type HIV-1 protease, the concentration for half-maximal inhibition (IC50) is 0.005 nM.

Consider `C=C[C@H](CCC[C@@H](CO)N(CCC(C)C)S(=O)(=O)c1ccc(CO)cc1)NC(=O)[C@@H](NC(=O)OC)C(c1ccccc1)c1ccccc1` [Example J11, N-{(1S,5S)-6-hydroxy-5-[{[4-(hydroxymethyl)phenyl]sulfonyl}(3-metbylbutyl)amino]-1-vinylhexyl}-Nα-(methoxycarbonyl)-β-phenyl-L-phenylalaninamide], for which, in assay [1], the concentration for an effect of 95% (IC95) is 107 nM. In addition, the IC50 on wild-type HIV-1 protease was found to be 0.185 nM.
